Literature values in US8509867B2, “Non-invasive measurement of analytes” (Cercacor Laboratories, Inc., priority 2002, dated 2013).

Assays:
[1] = i.v., rats (Merck)

Structure (SMILES): COC(=O)c1ccccc1-c1c2ccc(=N)cc-2oc2cc(N)ccc12 [Rh123, (2-(6-Amino-3-imino-3H-xanthen-9-yl)benzoic acid methyl ester)]
- fifty percent lethality (LD50) [1]: 89.5 mg/kg
- intravenous lethal dose for animals (LD10): approximately 20 mg/kg of body weight
